Experimental data as given in patent publication US20260000668A1 (priority 2021, published 2026).
In brackets after ≈: the same amount, converted by molar mass. Where two headings read alike, the source gives them in different places.

Columns and labels:
[1] = test system: SARS-Related Coronavirus 2 Isolate USA-WA1/2020; format: cell-based, SARS-COV-2; settings: treatment 2 hours pre-infection; for Mean Log10 Reduction: Vero E6, MOI=0.1, 2 days, vs untreated control
[2] = physchem

SMILES	Mean Log10 Reduction ([1]; 1 μM) [Log10]	Mean Log10 Reduction ([1]; 2 μM) [Log10]	Mean Log10 Reduction ([1]; 4 μM) [Log10]	Mean Log10 Reduction ([1]; 8 μM) [Log10]	antiviral activity against SARS-COV-2 ([1]; 1-8 μM, Vero E6)	solubility ([2]; organic solvent or mixture) [mg/mL]	solubility ([2]; water) [mg/mL]	Mean Log10 Reduction ([1]; 10 μM) [Log10]
CN1CCN(CCCc2ccc(C(c3ccccc3)C34CC5CC(CC(C5)C3)C4)cc2)CC1 (stereo not drawn) [AV1066, 1-Methyl-4-[3-[4-(phenyltricyclo[3.3.1.1^3,7]dec-1-ylmethyl)phenyl]propyl]piperazine]	0.00	0.10	1.33	4.89	exhibited antiviral activity against SARS-COV-2 in a dose dependent manner	21 (≈ 47.4 mM)	4 (≈ 9.04 mM)	–
CCC(CC)COC(=O)[C@H](C)N[P@](=O)(OC[C@H]1O[C@@](C#N)(c2ccc3c(N)ncnn23)[C@H](O)[C@@H]1O)Oc1ccccc1 [Remdesivir, reference compound]	–	–	–	–	–	100 (≈ 166 mM)	–	5.72
